This is an account of results in US12325681B2, “Inhibitors of nitric oxide synthases (NOS), pharmaceutical products thereof, and methods thereof” (Gacter Inc., priority 2022, dated 2025).

The structures appear in SMILES notation. Like-named read-outs stand apart in the source and are kept apart here.

What is called IC50 is the concentration that inhibits the measured activity by half. The low end stands for inhibition by little substance, the high end for a need for much substance.

One data set relates to rats. Particulars: cited from earlier work.
Another data set relates to mice. Particulars: cited from earlier work.
Data set [1] addresses T1, iNOS (Homo sapiens, UniProt P35228). Particulars: in words; cited from earlier work.
In data set [2] the target is T1, iNOS. The experiment in a line: abcam NOS Inhibitor Screening Kit, IC50 (fluorescence). The class given is biochemical. Also on record: IC50. The method, then:
The IC50 of some compounds of the invention was determined using the abcam NOS Inhibitor Screening Kit. The procedure includes the following steps: (1) Dissolved a test compound to 10 mM in DMSO; (2) Diluted the test compound to 1 mM in NOS Assay Buffer; (3) Diluted 1 mM of the test compound stocks to 200 μM, 50 μM, 12.5 μM, 3.125 μM, 0.781 μM, and 0.195 μM in NOS Assay Buffer; (4) Diluted 1 mM DPI Control to 50.0 μM, 12.5 μM, 3.125 μM, 0.781 μM, 0.195 μM, and 0.0488 μM in NOS Assay Buffer; (5) Diluted NOS enzyme with 400 μL of NOS Assay Buffer; (6) Combined Diluted NOS Enzyme with 1.6 mL of NOS Assay buffer then transferred 20 μL of enzyme solution to all wells of 96-well Fluorescence plate except background wells. Added 20 μL of NOS Assay buffer to background wells. (7) Transferred 10 uL of each test compound dilution to the enzyme buffer mix according to the plate map (see addendum for plate map and raw data values). (8) Incubated 15 minutes at room temperature. (9) Added 11 μL of NOS reaction mix (according to manufacturer's protocol) to each well, mixed, and incubated at 37° C. for 1 hour. […] Measure Fluorescence at 360 nm excitation/450 nm emission.

For data set [3], the target named is T1, iNOS. Described as above. The class given is biochemical. On the set-up: Fold (GT-xxxx)/AZ 6b. Particulars: ratio of IC50 to AZ 6b IC50 (0.0488 μM). As for the experimental part:
(§1) The IC50 of some compounds of the invention was determined using the abcam NOS Inhibitor Screening Kit. The procedure includes the following steps: (1) Dissolved a test compound to 10 mM in DMSO; (2) Diluted the test compound to 1 mM in NOS Assay Buffer; (3) Diluted 1 mM of the test compound stocks to 200 μM, 50 μM, 12.5 μM, 3.125 μM, 0.781 μM, and 0.195 μM in NOS Assay Buffer; (4) Diluted 1 mM DPI Control to 50.0 μM, 12.5 μM, 3.125 μM, 0.781 μM, 0.195 μM, and 0.0488 μM in NOS Assay Buffer; (5) Diluted NOS enzyme with 400 μL of NOS Assay Buffer; (6) Combined Diluted NOS Enzyme with 1.6 mL of NOS Assay buffer then transferred 20 μL of enzyme solution to all wells of 96-well Fluorescence plate except background wells. Added 20 μL of NOS Assay buffer to background wells. (7) Transferred 10 uL of each test compound dilution to the enzyme buffer mix according to the plate map (see addendum for plate map and raw data values). (8) Incubated 15 minutes at room temperature. (9) Added 11 μL of NOS reaction mix (according to manufacturer's protocol) to each well, mixed, and incubated at 37° C. for 1 hour. (10) Added 110 μL of NOS Assay Buffer to each well followed by 5 μL of Enhancer to each well, mixed, and incubated 10 minutes at room temperature; (11) Added 10 μL of Probe to each well, mixed, and incubated 10 minutes at room temperature; and (12) Added 5 μL of NaOH to each well, mixed, and incubated 10 minutes at room temperature. Measure Fluorescence at 360 nm excitation/450 nm emission.

Data set [4] has as its target T1, iNOS. The description is as above. It is filed as biochemical. Also on record: IC50; IC50. Particulars: abcam NOS Inhibitor Screening Kit. As for the experimental part: as §1

T1 sequence (P35228 whole entry): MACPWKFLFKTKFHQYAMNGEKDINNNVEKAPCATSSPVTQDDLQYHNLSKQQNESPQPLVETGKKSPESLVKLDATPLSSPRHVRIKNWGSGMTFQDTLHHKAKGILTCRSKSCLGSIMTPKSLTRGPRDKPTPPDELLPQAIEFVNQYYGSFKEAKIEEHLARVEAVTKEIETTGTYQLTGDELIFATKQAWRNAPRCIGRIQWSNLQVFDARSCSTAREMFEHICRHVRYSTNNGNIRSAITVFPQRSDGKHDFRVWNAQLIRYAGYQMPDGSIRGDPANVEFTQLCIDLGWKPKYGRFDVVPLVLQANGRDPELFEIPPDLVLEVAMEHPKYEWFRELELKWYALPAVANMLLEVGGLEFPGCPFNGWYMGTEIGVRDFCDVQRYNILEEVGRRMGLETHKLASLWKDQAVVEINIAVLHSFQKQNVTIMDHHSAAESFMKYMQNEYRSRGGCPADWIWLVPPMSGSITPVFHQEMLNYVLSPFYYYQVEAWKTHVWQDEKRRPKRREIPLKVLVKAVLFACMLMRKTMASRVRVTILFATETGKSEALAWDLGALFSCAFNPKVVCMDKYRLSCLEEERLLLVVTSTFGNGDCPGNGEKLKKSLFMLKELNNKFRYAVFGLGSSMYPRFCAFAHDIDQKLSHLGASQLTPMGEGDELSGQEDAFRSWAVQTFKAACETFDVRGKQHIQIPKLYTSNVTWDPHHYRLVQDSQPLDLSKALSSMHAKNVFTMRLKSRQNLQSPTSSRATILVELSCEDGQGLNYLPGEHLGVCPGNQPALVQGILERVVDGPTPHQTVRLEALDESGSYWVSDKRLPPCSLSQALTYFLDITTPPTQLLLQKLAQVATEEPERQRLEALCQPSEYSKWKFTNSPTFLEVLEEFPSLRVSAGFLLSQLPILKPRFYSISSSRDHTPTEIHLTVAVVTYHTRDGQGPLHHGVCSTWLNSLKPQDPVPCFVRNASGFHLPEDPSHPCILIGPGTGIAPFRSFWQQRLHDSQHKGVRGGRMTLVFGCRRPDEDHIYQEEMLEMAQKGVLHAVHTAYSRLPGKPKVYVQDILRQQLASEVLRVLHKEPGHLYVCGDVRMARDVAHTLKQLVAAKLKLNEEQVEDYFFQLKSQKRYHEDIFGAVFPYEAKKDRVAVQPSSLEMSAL

As for `N=C(N)SCCc1ccc(CCSC(=N)N)cc1` [PBIT, S,S′-1,4-phenylene-bis(1,2-ethanediyl)bis-isothiourea], the “acutely toxic at doses as low as” value in the data set with rats and in the data set on mice was 10 mg/kg throughout. Also, the “selectivity of inhibition iNOS to eNOS” value at iNOS [1] was “does not exhibit necessary selectivity”.
As for `N#Cc1ccc(Cl)cc1O[C@H](CCN)c1ccccc1` [AZ 6b, (R)-2-(3-amino-1-phenylpropoxy)-4-chlorobenzonitrile, reference compound], inhibition at iNOS [2] was half-maximal at 48.8 nM (IC50). This counts as double-digit nanomolar.
On to `OCCNCC[C@@H](Oc1cc(Cl)cc2[nH]cnc12)c1ccccc1` [GT-6060, (R)-2-((3-((6-chloro-1H-benzo[d]imidazol-4-yl)oxy)-3-phenylpropyl)amino)ethan-1-ol], for which the “Fold (GT-xxxx)/AZ 6b” value on iNOS [3] amounted to 9.10. Also, the IC50 against iNOS [4] (Table C-1) and on iNOS [4] (Table C-2) was 444 nM in each case.
On to `O=C1c2ccccc2C(=O)N1CC[C@@H](Oc1cc(Cl)cc2[nH]ncc12)c1ccccc1` [GT-6066, (R)-2-(3-((6-chloro-1H-indazol-4-yl)oxy)-3-phenylpropyl)isoindoline-1,3-dione], for which, on iNOS [3], the “Fold (GT-xxxx)/AZ 6b” value is 5.53. Moreover, the half-maximal inhibitory concentration (IC50) against iNOS [4] (Table C-1) and against iNOS [4] (Table C-2) was 270 nM in each case.
As to `N#Cc1ccc(Cl)cc1C(=O)N(CCNCC1CC1)c1ccccc1` [GT-7019, 5-chloro-2-cyano-N-(2-((cyclopropylmethyl)amino)ethyl)-N-phenyl benzamide], on iNOS [3], the “Fold (GT-xxxx)/AZ 6b” value is listed as 8.98. The IC50 against iNOS [4] (Table C-1) and against iNOS [4] (Table C-2) was 438 nM throughout.
Turning to `NCC[C@@H](Oc1cc(Cl)cc2[nH]ncc12)c1ccccc1` [GT-6045], on iNOS [3], the “Fold (GT-xxxx)/AZ 6b” value was determined as 4.73. For the same molecule, the IC50 on iNOS [4] (Table C-1) and against iNOS [4] (Table C-2) was 231 nM in each case.
